Test results from ChEMBL document CHEMBL4251572, “Novel aminopyrimidinyl benzimidazoles as potentially antimicrobial agents: Design, synthesis and biological evaluation” (Eur J Med Chem, 2018).
≈ marks a conversion by molar mass, not a printed value.

Legend:
[1] = test system: Candida albicans; experiment: Antifungal against Candida albicans ATCC 76615 after 24 hrs by two fold serial dilution method; format: functional; conditions: ATCC 76615, 24 h
[2] = test system: Staphylococcus aureus; experiment: Antibacterial activity against Staphylococcus aureus ATCC 25923 after 24 hrs by micro broth dilution assay; format: functional; conditions: ATCC 25923, 24 h
[3] = test system: Bacillus; experiment: Antibacterial activity against Bacillus proteus ATCC 13315 after 24 hrs by micro broth dilution assay; format: functional; conditions: ATCC 13315, 24 h
[4] = test system: Escherichia coli; experiment: Antibacterial activity against Escherichia coli JM109 after 24 hrs by micro broth dilution assay; format: functional; conditions: JM109, 24 h
[5] = test system: Shigella dysenteriae; experiment: Antibacterial activity against Shigella dysenteriae after 24 hrs by micro broth dilution assay; format: functional
[6] = test system: Staphylococcus aureus; experiment: Antibacterial activity against methicillin-resistant Staphylococcus aureus N315 after 24 hrs by micro broth dilution assay; format: functional; conditions: N315, 24 h
[7] = test system: Pichia norvegensis; experiment: Antifungal against Candida mycoderma after 24 hrs by two fold serial dilution method; format: functional
[8] = test system: Escherichia coli; experiment: Antibacterial activity against Escherichia coli DH52 after 24 hrs by micro broth dilution assay; format: functional; conditions: DH52, 24 h
[9] = test system: Micrococcus luteus; experiment: Antibacterial activity against Micrococcus luteus ATCC4698 after 24 hrs by micro broth dilution assay; format: functional; conditions: ATCC4698, 24 h
[10] = test system: Cyberlindnera jadinii; experiment: Antifungal against Candida utilis after 24 hrs by two fold serial dilution method; format: functional; conditions: Williopsis jadinii
[11] = test system: Saccharomyces cerevisiae; experiment: Antifungal against Saccharomyces cerevisiae after 24 hrs by two fold serial dilution method; format: functional
[12] = test system: Aspergillus flavus; experiment: Antifungal against Aspergillus flavus after 24 hrs by two fold serial dilution method; format: functional
[13] = test system: Pseudomonas aeruginosa; experiment: Antibacterial activity against Pseudomonas aeruginosa after 24 hrs by micro broth dilution assay; format: functional
[14] = test system: Salmonella typhi; experiment: Antibacterial activity against Bacillus typhi after 24 hrs by micro broth dilution assay; format: functional, Salmonella enterica subsp. enterica serovar Typhi; conditions: Salmonella enterica
[15] = test system: Bacillus subtilis; experiment: Antibacterial activity against Bacillus subtilis after 24 hrs by micro broth dilution assay; format: functional

SMILES | MIC [1] | MIC [2] | MIC [3] | MIC [4] | MIC [5] | MIC [6] | MIC [7] | MIC [8] | MIC [9] | MIC [10] | MIC [11] | MIC [12] | MIC [13] | MIC [14] | MIC [15]
CCCCn1c(C(=O)/C=C/c2ccc(C)cc2)nc2ccccc21 | 16 µg/mL (≈ 50.2 µM) | 32 µg/mL (≈ 100 µM) | 512 µg/mL (≈ 1610 µM) | 128 µg/mL (≈ 402 µM) | 128 µg/mL (≈ 402 µM) | 64 µg/mL (≈ 201 µM) | 128 µg/mL (≈ 402 µM) | 512 µg/mL (≈ 1610 µM) | 32 µg/mL (≈ 100 µM) | 512 µg/mL (≈ 1610 µM) | 4 µg/mL (≈ 12.6 µM) | 4 µg/mL (≈ 12.6 µM) | 16 µg/mL (≈ 50.2 µM) | 128 µg/mL (≈ 402 µM) | 128 µg/mL (≈ 402 µM)
CCCCCCn1c(C(=O)/C=C/c2ccc(Cl)cc2Cl)nc2ccccc21 | 512 µg/mL (≈ 1280 µM) | 32 µg/mL (≈ 79.7 µM) | 512 µg/mL (≈ 1280 µM) | 512 µg/mL (≈ 1280 µM) | 512 µg/mL (≈ 1280 µM) | 256 µg/mL (≈ 638 µM) | 512 µg/mL (≈ 1280 µM) | 512 µg/mL (≈ 1280 µM) | 512 µg/mL (≈ 1280 µM) | 512 µg/mL (≈ 1280 µM) | 512 µg/mL (≈ 1280 µM) | 512 µg/mL (≈ 1280 µM) | 512 µg/mL (≈ 1280 µM) | 512 µg/mL (≈ 1280 µM) | 512 µg/mL (≈ 1280 µM)
CCCCn1c(-c2cc(-c3ccc(Cl)cc3Cl)nc(N)n2)nc2ccccc21 | 512 µg/mL (≈ 1240 µM) | 512 µg/mL (≈ 1240 µM) | 512 µg/mL (≈ 1240 µM) | 32 µg/mL (≈ 77.6 µM) | 256 µg/mL (≈ 621 µM) | 512 µg/mL (≈ 1240 µM) | 32 µg/mL (≈ 77.6 µM) | 512 µg/mL (≈ 1240 µM) | 16 µg/mL (≈ 38.8 µM) | 64 µg/mL (≈ 155 µM) | 32 µg/mL (≈ 77.6 µM) | 512 µg/mL (≈ 1240 µM) | 128 µg/mL (≈ 310 µM) | 512 µg/mL (≈ 1240 µM) | 512 µg/mL (≈ 1240 µM)
CCCCCCn1c(C(=O)/C=C/c2ccc(C)cc2)nc2ccccc21 | 512 µg/mL (≈ 1480 µM) | 512 µg/mL (≈ 1480 µM) | 512 µg/mL (≈ 1480 µM) | 512 µg/mL (≈ 1480 µM) | 512 µg/mL (≈ 1480 µM) | 16 µg/mL (≈ 46.2 µM) | 512 µg/mL (≈ 1480 µM) | 512 µg/mL (≈ 1480 µM) | 512 µg/mL (≈ 1480 µM) | 512 µg/mL (≈ 1480 µM) | 512 µg/mL (≈ 1480 µM) | 512 µg/mL (≈ 1480 µM) | 512 µg/mL (≈ 1480 µM) | 512 µg/mL (≈ 1480 µM) | 512 µg/mL (≈ 1480 µM)
CCCCCCn1c(-c2cc(-c3ccc(C)cc3)nc(N)n2)nc2ccccc21 | 32 µg/mL (≈ 83 µM) | 128 µg/mL (≈ 332 µM) | 16 µg/mL (≈ 41.5 µM) | 16 µg/mL (≈ 41.5 µM) | 256 µg/mL (≈ 664 µM) | 16 µg/mL (≈ 41.5 µM) | 8 µg/mL (≈ 20.8 µM) | 32 µg/mL (≈ 83 µM) | 16 µg/mL (≈ 41.5 µM) | 8 µg/mL (≈ 20.8 µM) | 16 µg/mL (≈ 41.5 µM) | 512 µg/mL (≈ 1330 µM) | 64 µg/mL (≈ 166 µM) | 16 µg/mL (≈ 41.5 µM) | 128 µg/mL (≈ 332 µM)
CCCCCCCCn1c(-c2cc(-c3ccc(F)cc3)nc(N)n2)nc2ccccc21 | 256 µg/mL (≈ 613 µM) | 256 µg/mL (≈ 613 µM) | 512 µg/mL (≈ 1230 µM) | 256 µg/mL (≈ 613 µM) | 512 µg/mL (≈ 1230 µM) | 256 µg/mL (≈ 613 µM) | 64 µg/mL (≈ 153 µM) | 512 µg/mL (≈ 1230 µM) | 32 µg/mL (≈ 76.6 µM) | 8 µg/mL (≈ 19.2 µM) | 16 µg/mL (≈ 38.3 µM) | 128 µg/mL (≈ 307 µM) | 512 µg/mL (≈ 1230 µM) | 512 µg/mL (≈ 1230 µM) | 256 µg/mL (≈ 613 µM)
CCCCCCCn1c(-c2cc(-c3ccc(F)cc3)nc(N)n2)nc2ccccc21 | 16 µg/mL (≈ 39.7 µM) | 512 µg/mL (≈ 1270 µM) | 128 µg/mL (≈ 317 µM) | 256 µg/mL (≈ 634 µM) | 512 µg/mL (≈ 1270 µM) | 256 µg/mL (≈ 634 µM) | 512 µg/mL (≈ 1270 µM) | 16 µg/mL (≈ 39.7 µM) | 16 µg/mL (≈ 39.7 µM) | 8 µg/mL (≈ 19.8 µM) | 16 µg/mL (≈ 39.7 µM) | 16 µg/mL (≈ 39.7 µM) | 512 µg/mL (≈ 1270 µM) | 16 µg/mL (≈ 39.7 µM) | 2 µg/mL (≈ 4.96 µM)
O=C(/C=C/c1ccc(Cl)cc1)c1nc2ccccc2[nH]1 | 512 µg/mL (≈ 1810 µM) | 128 µg/mL (≈ 453 µM) | 512 µg/mL (≈ 1810 µM) | 256 µg/mL (≈ 905 µM) | 512 µg/mL (≈ 1810 µM) | 512 µg/mL (≈ 1810 µM) | 512 µg/mL (≈ 1810 µM) | 8 µg/mL (≈ 28.3 µM) | 64 µg/mL (≈ 226 µM) | 512 µg/mL (≈ 1810 µM) | 128 µg/mL (≈ 453 µM) | 32 µg/mL (≈ 113 µM) | 512 µg/mL (≈ 1810 µM) | 512 µg/mL (≈ 1810 µM) | 512 µg/mL (≈ 1810 µM)
CCCCCCn1c(C(=O)/C=C/c2ccc(F)cc2)nc2ccccc21 | 256 µg/mL (≈ 731 µM) | 512 µg/mL (≈ 1460 µM) | 64 µg/mL (≈ 183 µM) | 512 µg/mL (≈ 1460 µM) | 256 µg/mL (≈ 731 µM) | 512 µg/mL (≈ 1460 µM) | 512 µg/mL (≈ 1460 µM) | 32 µg/mL (≈ 91.3 µM) | 16 µg/mL (≈ 45.7 µM) | 512 µg/mL (≈ 1460 µM) | 512 µg/mL (≈ 1460 µM) | 16 µg/mL (≈ 45.7 µM) | 512 µg/mL (≈ 1460 µM) | 512 µg/mL (≈ 1460 µM) | 256 µg/mL (≈ 731 µM)
CCCCCCCCn1c(-c2cc(-c3ccc(C)cc3)nc(N)n2)nc2ccccc21 | 512 µg/mL (≈ 1240 µM) | 512 µg/mL (≈ 1240 µM) | 512 µg/mL (≈ 1240 µM) | 128 µg/mL (≈ 310 µM) | 512 µg/mL (≈ 1240 µM) | 512 µg/mL (≈ 1240 µM) | 512 µg/mL (≈ 1240 µM) | 8 µg/mL (≈ 19.3 µM) | 16 µg/mL (≈ 38.7 µM) | 16 µg/mL (≈ 38.7 µM) | 128 µg/mL (≈ 310 µM) | 512 µg/mL (≈ 1240 µM) | 512 µg/mL (≈ 1240 µM) | 512 µg/mL (≈ 1240 µM) | 512 µg/mL (≈ 1240 µM)
O=C(/C=C/c1ccc(F)cc1)c1nc2ccccc2[nH]1 | 128 µg/mL (≈ 481 µM) | 16 µg/mL (≈ 60.1 µM) | 32 µg/mL (≈ 120 µM) | 16 µg/mL (≈ 60.1 µM) | 256 µg/mL (≈ 961 µM) | 64 µg/mL (≈ 240 µM) | 128 µg/mL (≈ 481 µM) | 64 µg/mL (≈ 240 µM) | 16 µg/mL (≈ 60.1 µM) | > 512 µg/mL | 4 µg/mL (≈ 15 µM) | 512 µg/mL (≈ 1920 µM) | 128 µg/mL (≈ 481 µM) | 32 µg/mL (≈ 120 µM) | 64 µg/mL (≈ 240 µM)
Cc1ccc(/C=C/C(=O)c2nc3ccccc3[nH]2)cc1 | 4 µg/mL (≈ 15.2 µM) | 8 µg/mL (≈ 30.5 µM) | 4 µg/mL (≈ 15.2 µM) | 4 µg/mL (≈ 15.2 µM) | 16 µg/mL (≈ 61 µM) | 8 µg/mL (≈ 30.5 µM) | 32 µg/mL (≈ 122 µM) | 8 µg/mL (≈ 30.5 µM) | 16 µg/mL (≈ 61 µM) | 16 µg/mL (≈ 61 µM) | 8 µg/mL (≈ 30.5 µM) | 16 µg/mL (≈ 61 µM) | 4 µg/mL (≈ 15.2 µM) | 2 µg/mL (≈ 7.62 µM) | 16 µg/mL (≈ 61 µM)
CCCCn1c(C(=O)/C=C/c2ccc(Cl)cc2Cl)nc2ccccc21 | 256 µg/mL (≈ 686 µM) | 512 µg/mL (≈ 1370 µM) | 512 µg/mL (≈ 1370 µM) | 256 µg/mL (≈ 686 µM) | 16 µg/mL (≈ 42.9 µM) | 8 µg/mL (≈ 21.4 µM) | 128 µg/mL (≈ 343 µM) | 512 µg/mL (≈ 1370 µM) | 512 µg/mL (≈ 1370 µM) | 512 µg/mL (≈ 1370 µM) | 16 µg/mL (≈ 42.9 µM) | 512 µg/mL (≈ 1370 µM) | 512 µg/mL (≈ 1370 µM) | 512 µg/mL (≈ 1370 µM) | 64 µg/mL (≈ 171 µM)
CCCCCCCCn1c(C(=O)/C=C/c2ccc(C)cc2)nc2ccccc21 | 256 µg/mL (≈ 684 µM) | 512 µg/mL (≈ 1370 µM) | 512 µg/mL (≈ 1370 µM) | 512 µg/mL (≈ 1370 µM) | 512 µg/mL (≈ 1370 µM) | 512 µg/mL (≈ 1370 µM) | 512 µg/mL (≈ 1370 µM) | 512 µg/mL (≈ 1370 µM) | 512 µg/mL (≈ 1370 µM) | 256 µg/mL (≈ 684 µM) | 512 µg/mL (≈ 1370 µM) | 512 µg/mL (≈ 1370 µM) | 512 µg/mL (≈ 1370 µM) | 512 µg/mL (≈ 1370 µM) | 512 µg/mL (≈ 1370 µM)
OC(Cn1cncn1)(Cn1cncn1)c1ccc(F)cc1F [FLUCONAZOLE] | 1 µg/mL (≈ 3.27 µM) |  |  |  |  |  | 4 µg/mL (≈ 13.1 µM) |  |  | 16 µg/mL (≈ 52.2 µM) | 8 µg/mL (≈ 26.1 µM) | 256 µg/mL (≈ 836 µM) |  |  | 
